Measurements from publication PMC8657723, “Novel Pituitary Actions of TAC4 Gene Products in Teleost” (International Journal of Molecular Sciences, 2021).

system: grass carp pituitary cells; experiment: Receptor antagonist / pathway inhibitor co-treatment on HK2-induced mRNA expression in grass carp pituitary cells; format: cell-based, grass carp (Ctenopharyngodon idellus); settings: inhibitor 1 μM with HK2 1 μM, 24 h co-treatment
Experimental: In this experiment, a pharmacological approach was used to clarify the receptor specificity for SLα and PRL regulation by HK2. Pituitary cells were incubated for 24 h with grass carp HK2 (1 μM) with simultaneous treatment of the NK1R antagonist Rolaptiant (10 μM) or NK3R antagonist SB222200 (10 μM), respectively.
Figure 7 The receptor specificity and signal transduction for PRL and SLα regulation by HK2 in grass carp pituitary cells. (A) Effects of NKR subtype-specific antagonists on HK2-induced PRL and SLα mRNA expression. Pituitary cells were challenged for 24 h with grass carp HK2 (1 μM) in the presence or absence of the NK1R antagonist Rolaptiant (10 μM) or NK3R antagonist SB22200 (10 μM), respectively. (B) Effects of 24-h co-treatment with AC inhibitor MDL12330A (10 μM) or PKA inhibitor H89 (10 μM) on HK2-induced PRL and SLα mRNA expression. (C) Effects of 24-h co-treatment with PLC inhibitor U73122, PKC inhibitor GF109203X (10 μM), or IP3 receptor blocker 2-APB (10 μM) on HK2-induced PRL and SLα mRNA expression. (D) Effects of 24-h co-treatment with the VSCC inhibitor nifedipine (10 μM), CaM antagonist calmidazolium (1 μM) or CaMK-II blocker KN62 (10 μM) on HK2-induced PRL and SLα mRNA expression. After drug treatment, the total RNA of the cells was extracted by the Trizol method, and the expression of various genes was detected by RT-PCR. Data presented were expressed as mean ± SEM, and the differences between groups were significant at p-value < 0.05 by labeling diverse letters.
Figure 8 The receptor specificity and signal transduction for CART2, NMB1, and UTS1 regulation by HK2 in grass carp pituitary cells. (A) The pituitary cells were treated for 24 h with grass carp HK2 (1 μM) in the presence or absence of NK1R antagonist Rolaptiant (10 μM) or NK3R antagonist SB222200 (10 μM). (B) Effects of 24-h co-treatment with an AC inhibitor MDL12330A (10 μM) or PKA inhibitor H89 (10 μM) on HK2-induced CART2, UTS1, or NMB1 mRNA expression. (C) Effects of 24h co-treatment with a PLC inhibitor U73122, PKC inhibitor GF109203X (10 μM), or IP3 receptor blocker 2-APB (10 μM) on HK2-induced CART2, UTS1 or NMB1 mRNA expression. (D) Effects of 24-h co-treatment with the VSCC inhibitor nifedipine (10 μM), CaM antagonist calmidazolium (1 μM), or CaMK-II blocker KN62 (10 μM) on HK2-induced CART2, UTS1 or NMB1 mRNA expression.

| Compound | effect on HK2-induced CART2 mRNA expression | effect on HK2-induced NMB1 mRNA expression | effect on HK2-induced PRL mRNA expression | effect on HK2-induced SLα mRNA expression | effect on HK2-induced UTS1 mRNA expression |
| --- | --- | --- | --- | --- | --- |
| Clc1ccc(C(c2ccc(Cl)cc2)n2cc[n+](CC(OCc3ccc(Cl)cc3Cl)c3ccc(Cl)cc3Cl)c2)cc1 (stereo not drawn) [calmidazolium] | suppressed/totally abolished | suppressed/totally abolished | suppressed or totally abolished | suppressed or totally abolished | suppressed/totally abolished |

same assay, conditions: inhibitor 10 μM with HK2 1 μM, 24 h co-treatment

| Compound | effect on HK2-induced CART2 mRNA expression | effect on HK2-induced NMB1 mRNA expression | effect on HK2-induced PRL mRNA expression | effect on HK2-induced SLα mRNA expression | effect on HK2-induced UTS1 mRNA expression |
| --- | --- | --- | --- | --- | --- |
| NCCOB(c1ccccc1)c1ccccc1 [2-APB] | effective in blocking | effective in blocking | totally abolished | totally abolished | effective in blocking |
| CN(C)CCCn1cc(C2=C(c3c[nH]c4ccccc34)C(=O)NC2=O)c2ccccc21 [GF109203X] | effective in blocking | effective in blocking | totally abolished | totally abolished | effective in blocking |
| O=S(=O)(NCCNC/C=C/c1ccc(Br)cc1)c1cccc2cnccc12 [H89] | abolished | abolished | effective in blocking | effective in blocking | abolished |
| CN([C@@H](Cc1ccc(OS(=O)(=O)c2cccc3cnccc23)cc1)C(=O)N1CCN(c2ccccc2)CC1)S(=O)(=O)c1cccc2cnccc12 [KN62] | suppressed/totally abolished | suppressed/totally abolished | suppressed or totally abolished | suppressed or totally abolished | suppressed/totally abolished |
| Cl.c1ccc(C2CCCC2NC2=NCCCCCCCCCCC2)cc1 (stereo not drawn) [MDL12330A] | abolished | abolished | effective in blocking | effective in blocking | abolished |
| C[C@@H](OC[C@@]1(c2ccccc2)CC[C@]2(CCC(=O)N2)CN1)c1cc(C(F)(F)F)cc(C(F)(F)F)c1 [Rolaptiant] |  | not with the NK1R antagonist Rolaptiant | could not be totally abolished | only partially block |  |
| CC[C@H](NC(=O)c1c(C)c(-c2ccccc2)nc2ccccc12)c1ccccc1 [SB222200] | totally abolished | totally abolished | could not be totally abolished | totally blocked | totally abolished |
| COc1ccc2c(c1)CC[C@@H]1[C@@H]2CC[C@]2(C)[C@@H](NCCCCCCN3C(=O)C=CC3=O)CC[C@@H]12 [U73122] | effective in blocking | effective in blocking | totally abolished | totally abolished | effective in blocking |
| COC(=O)C1=C(C)NC(C)=C(C(=O)OC)C1c1ccccc1[N+](=O)[O-] [nifedipine] | suppressed/totally abolished | suppressed/totally abolished | suppressed or totally abolished | suppressed or totally abolished | suppressed/totally abolished |
